Measured values published in publication PMC5234776, “Study of the Antimicrobial Activity of Tilapia Piscidin 3 (TP3) and TP4 and Their Effects on Immune Functions in Hybrid Tilapia (Oreochromis spp.)” (PLoS ONE, 2017).
Converted amounts (≈) assume the structure as drawn. Peptide text beside a SMILES is read from it.

Assays:
V. vulnificus [1] = assay: microbe, parasite or virus in culture; assay type: cell-based, Vibrio vulnificus
Description: (§1) We determined the MICs of TP3, TP4, kanamycin, and ampicillin against V. vulnificus using a broth microdilution method in accordance with NCCLS guidelines. To measure the killing efficiencies of TP3 and TP4 against V. vulnificus, we prepared TP3 or TP4 solutions at MIC concentrations of 0.5×, 1×, and 2× and these solutions with equal volumes of V. vulnificus (1×10^6 CFU/ml) to each well of a 96-well plate. The plates were incubated at 28°C for 0, 60, 120, 180, 360, 540, 720, or 1440 minutes, and after the incubation period, 50 μL of each bacterial solution were plated on a TCBS plate to obtain viable cell counts. Broth grown in the absence of peptides was used as a negative control. The results were determined using triplicate independent experiments.
First, we determined the minimum MICs and minimum bactericidal concentrations (MBCs) of TP3 or TP4 against V. vulnificus.

V. vulnificus [2] = assay: Time-kill analysis; assay type: cell-based, Vibrio vulnificus; conditions: for eradication of bacteria: 60 minutes of exposure at 2×MIC, in words; for time after which V. vulnificus CFUs recovered: peptide at 1xMIC
Description: as §1

V. vulnificus [3] = assay: Membrane perturbation, NPN uptake; assay type: cell-based, Vibrio vulnificus; conditions: 1×10^6 CFU/ml, 30 minutes, 40 μmol/L NPN; kanamycin: slight increase only
Description: We used previously reported methods for the membrane perturbation assay. Briefly, a single colony of V. vulnificus was cultured in TSB medium for 480 minutes at 28°C, and the adjusted culture (1×10^6 CFU/ml) was aliquoted into different tubes with or without TP4 or TP3. After incubating the cells for 30 minutes, we added 40 μmol/L 1-N-phenylnaphthylamine (NPN) and continued to incubate the cells. Tubes containing PBS with NPN and bacterial cells with NPN served as controls. The NPN fluorescence intensity was detected using a fluorescence ELISA reader. All experiments were performed in triplicate, and the results are expressed as means with standard errors (SE).

V. vulnificus [4] = assay: Tilapia survival, co-treatment with V. vulnificus and peptide; assay type: in vivo, tilapia (Oreochromis spp.); conditions: abdominal cavity, seven days
Excerpt: (§2) We obtained tilapia (Oreochromis spp.) from a commercial aquaculture company. The fish body lengths were 4.0±0.6 cm, and body weights were 3.1±0.3 g. The tilapia were maintained in a 2000 liter indoor aquarium at the Marine Research Station, Ilan, Taiwan. To study the efficacy with which TP3 and TP4 protect tilapia against V. vulnificus, we injected the bacteria into the abdominal cavities (peritoneum) of the tilapia using a syringe (29 Gx1/2, Terumo Medical, Elkton, MD, USA); control tilapia were injected with PBS-buffered saline. For the first trial in each group, we used 15 tilapia: (a) group 1 was injected with V. vulnificus (2×10^5 CFU/fish) only; (b) group 2 was injected with PBS only; and (c) group 3 was injected with bacterial cells (2×10^5 CFU/fish) combined with a mixture containing both TP3 and TP4 peptides (at 0.1, 1, 10, or 20 μg/fish) that had been incubated for 60 minutes at 28°C. Next, at 168 hours after the first injection, the tilapia that survived the first co-treatment were again injected with V. vulnificus (2×10^5 CFU/fish). For this second challenge, we chose tilapia with similar body weights and ages that had not been previously treated with V. vulnificus, TP3 or TP4 for the V. vulnificus-only group (control group), and we recorded the survival rate over seven days. For the third trial, each group contained 15 tilapia, each of which was injected with 20, 30, or 40 μg of TP3 or TP4 followed by V. vulnificus (2×10^5 CFU/fish) after 0.5, 1, or 2 hours. The survival rate was recorded after seven days. For the fourth trial, each group contained 15 tilapia, each of which was first injected with V. vulnificus (2×10^5 CFU/fish) and then with 20, 30, or 40 μg of TP3 or TP4 after 0.5, 1, or 2 hours; the survival rate was recorded over seven days. Each experimental group consisted of 15 fish per treatment and three replicates (triplicate groups of 15 fish per treatment). We performed multiple group comparisons by analysis of variance (ANOVA) using SPSS software, and pairwise comparisons of groups were performed using a t-test. Significant differences were indicated as *P<0.05 and **P<0.01.

V. vulnificus [5] = assay: Tilapia survival, peptide injected before V. vulnificus infection (pre-treatment); assay type: in vivo, tilapia (Oreochromis spp.); conditions: 7 days
Excerpt: as §2

V. vulnificus [6] = assay: In vivo bactericidal activity, bacterial load in tilapia liver; parameters: species or system tilapia (Oreochromis spp.); conditions: for V. vulnificus bacterial load in the liver versus infected untreated fish: 20, 30 or 40 μg/fish, co-, pre- or post-treatment, in words; for bacterial clearance of V. vulnificus from the tilapia: after 48 hours
Description: Three groups of fish were used for these experiments. The first group was first injected with V. vulnificus (2×10^5 CFU/fish) followed by TP3 or TP4 peptides (20, 30, or 40 μg/fish) 0.5 hours later. A second group was first injected with TP3 or TP4 peptides (20, 30, or 40 μg/fish) and then, 0.5 hours later, with V. vulnificus (2×10^5 CFU/fish). A third group of tilapia was simultaneously injected (co-treated) with V. vulnificus (2×10^5 CFU/fish) and TP3 or TP4 peptides (20, 30, or 40 μg/fish). Liver samples were obtained from each group of tilapia at 3, 6, 9, 12, 24, and 48 hours after the final treatment and the tissues were homogenized in TSB medium before being spread onto TCBS plates. We incubated the plates at 28°C for 12 hours and then counted the number of bacterial colonies.

[7] = co-injection of V. vulnificus and peptide 0.1 μg/fish
[8] = co-injection of V. vulnificus and peptide 1 μg/fish
[9] = co-injection of V. vulnificus and peptide 10 μg/fish
[10] = co-injection of V. vulnificus and peptide 20 μg/fish
[11] = peptide 20 μg/fish 0.5 hours before V. vulnificus
[12] = peptide 20 μg/fish 1 hour before V. vulnificus
[13] = peptide 20 μg/fish 2 hours before V. vulnificus
[14] = peptide 30 μg/fish 0.5 hours before V. vulnificus
[15] = peptide 30 μg/fish 1 hour before V. vulnificus
[16] = peptide 30 μg/fish 2 hours before V. vulnificus
[17] = peptide 40 μg/fish 0.5 hours before V. vulnificus
[18] = peptide 40 μg/fish 1 hour before V. vulnificus
[19] = peptide 40 μg/fish 2 hours before V. vulnificus

SMILES | MBC (V. vulnificus [1]) | eradication of bacteria (V. vulnificus [2]) | time after which V. vulnificus CFUs recovered (V. vulnificus [2]) | concentration that increased NPN fluorescence (V. vulnificus [3]) | survival rate (V. vulnificus [4]; [7]) | survival rate (V. vulnificus [4]; [8]) | survival rate (V. vulnificus [4]; [9]) | survival rate (V. vulnificus [4]; [10]) | survival rate (V. vulnificus [5]; [11]) | survival rate (V. vulnificus [5]; [12]) | survival rate (V. vulnificus [5]; [13]) | survival rate (V. vulnificus [5]; [14]) | survival rate (V. vulnificus [5]; [15]) | survival rate (V. vulnificus [5]; [16]) | survival rate (V. vulnificus [5]; [17]) | survival rate (V. vulnificus [5]; [18]) | survival rate (V. vulnificus [5]; [19]) | V. vulnificus bacterial load in the liver versus infected untreated fish (V. vulnificus [6]) | bacterial clearance of V. vulnificus from the tilapia (V. vulnificus [6])
CC[C@H](C)[C@H](NC(=O)[C@H](C)NC(=O)[C@H](CCCCN)NC(=O)CNC(=O)[C@H](C)NC(=O)[C@H](CO)NC(=O)[C@H](Cc1ccccc1)NC(=O)[C@H](CC(C)C)NC(=O)CNC(=O)CNC(=O)[C@@H](NC(=O)[C@@H](NC(=O)[C@H](Cc1c[nH]cn1)NC(=O)[C@H](Cc1c[nH]cn1)NC(=O)[C@@H](NC(=O)[C@@H](N)Cc1ccccc1)[C@@H](C)CC)[C@@H](C)CC)[C@@H](C)CC)C(=O)N[C@@H](Cc1c[nH]cn1)C(=O)N[C@@H](CCCNC(=N)N)C(=O)N[C@@H](CC(C)C)C(=O)N[C@H](C(=O)N[C@@H](CCCNC(=N)N)C(=O)N[C@@H](CCCNC(=N)N)C(=O)N[C@@H](CCCNC(=N)N)C(=O)N[C@@H](CCCNC(=N)N)C(=O)N[C@@H](CCCNC(=N)N)C(=O)O)[C@@H](C)CC [TP4, tilapia piscidin 4] (H-FIHHIIGGLFSAGKAIHRLIRRRRR-OH) | 7.8 µg/mL (≈ 2.62 µM) | completely eradicated | ~9 h | 8 µg/mL | 73.3% | 75% | 86% | 88.9% | 37.8% | 4.4% | 0% | 31.1% | 20% | 2.2% | 11.1% | 4.4% | 4.4% | significantly reduced | 100%
CC[C@H](C)[C@H](NC(=O)[C@H](CC(C)C)NC(=O)[C@H](CO)NC(=O)[C@H](Cc1c[nH]cn1)NC(=O)[C@@H](NC(=O)[C@H](Cc1c[nH]cn1)NC(=O)[C@H](CCCCN)NC(=O)CNC(=O)[C@@H](NC(=O)[C@H](CO)NC(=O)[C@H](Cc1ccccc1)NC(=O)[C@H](CC(C)C)NC(=O)CNC(=O)CNC(=O)[C@@H](NC(=O)[C@@H](NC(=O)[C@H](Cc1c[nH]cn1)NC(=O)[C@H](Cc1c[nH]cn1)NC(=O)[C@@H](NC(=O)[C@@H](N)Cc1ccccc1)[C@@H](C)CC)[C@@H](C)CC)[C@@H](C)CC)C(C)C)[C@@H](C)CC)C(=O)N[C@@H](Cc1c[nH]cn1)C(=O)NCC(=O)N[C@@H](Cc1c[nH]cn1)C(=O)O [TP3, tilapia piscidin 3] (H-FIHHIIGGLFSVGKHIHSLIHGH-OH) | 62.5 µg/mL (≈ 24.4 µM) | completely eradicated | approximately 6 hours | 60 µg/mL | 0% | 0% | 73.3% | 95.3% | 13.3% | 2.2% | 2.2% | 28.9% | 11.8% | 8.9% | 26.7% | 8.9% | 4.4% | significantly lower | 100%
